Values of other authors in patent publication US20250171456A1, “P[…] AND THEIR THERAPEUTIC USES” (priority 2022, published 2025).

Columns and labels:
[1] = humans, after oral administration of psilocybin (Passie, 2002)
[2] = Ballesteros, 2006

| SMILES | time until psilocin is detectable in significant amounts in the plasma [1] | solubility in water relative to psilocin [2] |
| --- | --- | --- |
| CN(C)CCc1c[nH]c2cccc(O)c12 [Psilocin] | 20 to 40 min | – |
| CN(C)CCc1c[nH]c2cccc(OP(=O)(O)O)c12 [Psilocybin] | – | more soluble in water than psilocin |
